According to US20060258589A1, “Methods for enhancing radiation therapy” (IGF Oncology, LLC, priority 2004, published 2006):

How the values were obtained:
[1] = tested on: LnCap, MiaPaCa, H226, and A549 tumors; assay: In vivo assays: growth of tumor volume after irradiation of subcutaneous tumors in nude mice; conditions: male nude mice; treated 30 minutes before 15 Gy X-rays; followed for 3 weeks
Experimental: LnCap, MiaPaCa, H226, and A549 cells are grown in culture. Cells are harvested using 0.25% trypsin, washed, suspended in Dulbecco's PBS, and counted. 1×10^6 cells are injected subcutaneously into the hind thigh of male nude mice. Tumors are grown to 250 mm^3 in ˜21 days. Tumors are measured with a caliper, and the tumor size is calculated by the formula a^2b/2, where a and b are the shorter and longer diameters of the tumor, respectively. When the tumors reach 250 mm^3, the mice are treated with insulin (5 or 40 μg/kg), IGF-1 (5 or 100 μg/kg) or insulin+glucose (5 g glucose/kg), or growth hormone (50 or 500 μg/kg), or saline control 30 minutes before radiation treatment. The mice are anesthetized immediately before radiation treatment, and then the tumor-bearing leg is irradiated with X-rays at 1.4 Gy/minute, receiving a dose of 15 Gy. The growth of tumor volume in the mice after irradiation is followed for 3 weeks.

[2] = tested on: MiaPaCa, LnCap, H226 and A549 cells; assay: In vitro assays: surviving fraction (colony formation) of cancer cells after X-ray irradiation; assay type: cell-based, human; conditions: hormone added before 200 rads X-rays; for sensitization to radiation: exponential phase cells; for cell killing by radiation: plateau-phase cells, at least some concentrations and times
Experimental: MiaPaCa (a human pancreatic cancer cell line), LnCap (a human prostate cancer cell line), H226 and A549 (two human lung cancer cell lines) are grown in monolayer cultures in McCoy's 5A medium containing 10% fetal bovine serum and buffered with 2.0 g/L sodium bicarbonate and 0.02 M Hepes, pH 7.4. The cells are at seeded at 6×10^4 cells per T30 flask. On day 3 the medium is changed. The cells are irradiated at either 4 days (exponential cells) or 7 days (plateau-phase cells). Twenty minutes before, 2 hours before, or immediately before irradiation, insulin (0.01, 0.1, or 1 μg/ml) or IGF-1 (3, 20, or 150 ng/ml) is added to the medium. Control cells have no added hormone. The cells are then irradiated with 200 rads X-rays. After irradiation, the cells are allowed to recover in the used medium for 60 minutes.
The cells are then typsinized and plated in fresh medium. The surviving fraction of a specific number of plated cells is determined by staining colonies with methylene blue after 7-10 days of growth.
Exponential-phase and plateau-phase cells are then treated with insulin and IGF-1 separately and together at their experimentally determined optimal concentrations immediately before, 15 minutes before, and 2 hours before irradiation with a range of radiation doses. Again, the cells are trypsinized and plated, and the percent surviving is determined.
Exponential- and plateau-phase cells are then treated with insulin at the optimal concentration in combination with 30 mM glucose.

[3] = another study; cited from earlier work
breast cancer cells = conditions: tissue culture; methotrexate killing; cited from earlier work
cancer cells = conditions: Ciftci 2003; cited from earlier work
[4] = tested on: soluble IGF-1 binding proteins; conditions: compared to native IGF-1; Francis 1992, Tomas 1993; cited from earlier work

Row | Molecule | effectiveness of radiation therapy (growth of tumor volume) [1] | sensitization to radiation [2] | cell killing by radiation [2] | enhancement of uptake of methotrexate [3] [factor] | enhancement of the killing of breast cancer cells (breast cancer cells) | proportion of cells in the G2 and M phases of the cell cycle (cancer cells) | binding affinity for the soluble IGF-1 binding proteins [4]
1 | insulin | enhance the effectiveness of radiation therapy | sensitized to radiation | increase cell killing by radiation | 2 | up to 10,000 fold | – | –
2 | growth hormone | enhance the effectiveness of radiation therapy | – | – | – | – | – | –
3 | insulin-like growth factor-1 [IGF-1] | enhance the effectiveness of radiation therapy | sensitized to radiation | increase cell killing by radiation | – | – | moves a greater proportion of the cells into the G2 and M phases | –
4 | LONG-R3-IGF-1: variant IGF-1 with reduced binding affinity for the soluble IGF-1 binding proteins (SEQ ID NO:1) (protein, LONG-R3-IGF-1 synthetic variant of IGF-1) MFPAMPLSSLFVNGPRTLCGAELVDALQFVCGDRGFYFNKPTGYSSSRRAPQTGIVDECCFRSCDLRRLEMYCAPLKPAKSA | – | – | – | – | – | – | reduced binding affinity
